According to US9035059B2, “Nitrogen-containing condensed heterocyclic compound” (TAISHO PHARMACEUTICAL CO., LTD., priority 2011, dated 2015):

Biological target: human MGAT2 (Homo sapiens (Human), UniProt Q3SYC2)
Test: Test Example 1: Test of MGAT2 inhibitory action (human MGAT2 enzyme fraction from Sf9 cells, free CoA detected by CPM fluorescence)
Assay type: biochemical
Conditions: human MGAT2 enzyme fraction expressed in Sf9 insect cells, 0.5 μg/ml, 2-monooleoyl glycerol 0.78 μM, oleoyl-CoA 5.3 μM, room temperature 20 min, listed as 10-3, read-out: Activity Value [nM] (IC50, concentration at which 50% of produced free CoA was inhibited)
Description: The MGAT2 inhibitory action of the inventive compound was measured by the methods described in Test Examples as shown below. The MGAT enzyme activity was measured based on the amount of an indicator, free Coenzyme A (CoA) which is generated by the reaction shown below, using a sulfhydryl reactive pigment (7-diethylamino-3-(4-maleimidophenyl)-4-methylcoumarin; hereinafter, sometimes abbreviated as CPM).
A test for MGAT2 inhibitory action of test compounds was conducted in accordance with a partially modified version of the method described in John F. Lockwood et al., Am. J. Physiol. Endocrinol. Metab., 2003, 285, E927.
Bac-to-Bac Baculovirus Expression System (Life Technologies Japan) was used to express human MGAT2 in insect cells (Sf9) (Life Technologies Japan). These cells were sonicated and centrifuged at 100,000 g×1 hr to give a precipitate. The precipitate was used as a human MGAT2 enzyme fraction in this assay.
This test was conducted using a black flat-bottom 96-well plate (Corning). A buffer solution with final concentrations of 5 mM magnesium chloride, 100 mM sucrose and 100 mM Tris-HCl (pH=7.5) was prepared and test compounds prepared in various concentrations using dimethyl sulfoxide were added thereto to give a final dimethyl sulfoxide concentration of 1%. The MGAT2 enzyme fraction was added thereto to give a final concentration of 0.5 μg/ml and phosphatidylcholine, 2-monooleoyl glycerol and oleoyl-CoA were added thereto to give final concentrations of 7.5 μM, 0.78 μM and 5.3 μM, respectively, before starting a reaction. The reaction was performed at room temperature for 20 min.
After 20 min, a CPM-containing solution was added thereto to give a final concentration of 5 μM before stopping the MGAT reaction. After 1 hr, a fluorescence detector (Infinite 200 from Tecan Japan) was used to measure the CPM fluorescence value of each well (excitation 380 nm, emission 460 nm).

human MGAT2, sequence (Q3SYC2 whole entry): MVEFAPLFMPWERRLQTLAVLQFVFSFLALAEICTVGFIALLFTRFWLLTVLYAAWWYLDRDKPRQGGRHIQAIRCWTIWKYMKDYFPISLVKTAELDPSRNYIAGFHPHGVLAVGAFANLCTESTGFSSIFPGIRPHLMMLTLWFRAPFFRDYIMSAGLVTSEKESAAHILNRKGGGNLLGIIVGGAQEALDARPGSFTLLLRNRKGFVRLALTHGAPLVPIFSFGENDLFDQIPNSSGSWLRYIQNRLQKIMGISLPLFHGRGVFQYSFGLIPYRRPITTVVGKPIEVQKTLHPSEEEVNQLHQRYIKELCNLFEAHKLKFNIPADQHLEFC

Compound	IC50
CCCCCCOc1ccc(NS(=O)(=O)c2ccc3c(c2)CCN(C(C)Cc2ccc(C(C)(C)C)cc2)C3)c(F)c1 (single isomer, unassigned) [Working Example 10-3]	26 nM

Same assay, conditions: human MGAT2 enzyme fraction expressed in Sf9 insect cells, 0.5 μg/ml, 2-monooleoyl glycerol 0.78 μM, oleoyl-CoA 5.3 μM, room temperature 20 min, listed as 10-6, read-out: Activity Value [nM] (IC50, concentration at which 50% of produced free CoA was inhibited)

Compound	IC50
CC(Cc1ccc(C(C)(C)C)cc1)N1CCc2cc(S(=O)(=O)Nc3ccc(CCCC4CCCC4)cc3F)ccc2C1 (single isomer, unassigned) [Working Example 10-6]	44 nM

Same assay, conditions: human MGAT2 enzyme fraction expressed in Sf9 insect cells, 0.5 μg/ml, 2-monooleoyl glycerol 0.78 μM, oleoyl-CoA 5.3 μM, room temperature 20 min, listed as 10-7, read-out: Activity Value [nM] (IC50, concentration at which 50% of produced free CoA was inhibited)

Compound	IC50
CCCCCCCc1ccc(NS(=O)(=O)c2ccc3c(c2)CCN(C(C)Cc2ccc(C(C)(C)C)cc2)C3)c(F)c1 (single isomer, unassigned) [Working Example 10-7]	31 nM

Same assay, conditions: human MGAT2 enzyme fraction expressed in Sf9 insect cells, 0.5 μg/ml, 2-monooleoyl glycerol 0.78 μM, oleoyl-CoA 5.3 μM, room temperature 20 min, listed as 10-11, read-out: Activity Value [nM] (IC50, concentration at which 50% of produced free CoA was inhibited)

Compound	IC50
CC(Cc1ccc(C(C)(C)C)cc1)N1CCc2cc(S(=O)(=O)Nc3ccc(OCCCCCc4ccccc4)cc3F)ccc2C1 (single isomer, unassigned) [Working Example 10-11]	80 nM

Same assay, conditions: human MGAT2 enzyme fraction expressed in Sf9 insect cells, 0.5 μg/ml, 2-monooleoyl glycerol 0.78 μM, oleoyl-CoA 5.3 μM, room temperature 20 min, listed as 10-12, read-out: Activity Value [nM] (IC50, concentration at which 50% of produced free CoA was inhibited)

Compound	IC50
CC(Cc1ccc(C(C)(C)C)cc1)N1CCc2cc(S(=O)(=O)Nc3ccc(OCCCCCc4ccccc4)cc3F)ccc2C1 (single isomer, unassigned) [Working Example 10-12]	42 nM

Same assay, conditions: human MGAT2 enzyme fraction expressed in Sf9 insect cells, 0.5 μg/ml, 2-monooleoyl glycerol 0.78 μM, oleoyl-CoA 5.3 μM, room temperature 20 min, listed as 10-14, read-out: Activity Value [nM] (IC50, concentration at which 50% of produced free CoA was inhibited)

Compound	IC50
CC(Cc1ccc(C(C)(C)C)cc1)N1CCc2cc(S(=O)(=O)Nc3ccc(OCCCC4CCCCC4)cc3F)ccc2C1 (single isomer, unassigned) [Working Example 10-14]	106 nM

Same assay, conditions: human MGAT2 enzyme fraction expressed in Sf9 insect cells, 0.5 μg/ml, 2-monooleoyl glycerol 0.78 μM, oleoyl-CoA 5.3 μM, room temperature 20 min, read-out: Activity Value [nM] (IC50, concentration at which 50% of produced free CoA was inhibited)

Compound	IC50
CC(C)(C)c1ccc(NC(=O)N2Cc3ccc(S(=O)(=O)Nc4ccc(OCCOc5cccc(C(F)(F)F)c5)cc4F)cc3C2)cc1 [18-21]	59 nM
CCCCCOc1ccc(NS(=O)(=O)c2ccc3c(c2)CN(C(=O)Nc2ccc(C(C)(C)C)cc2)C3)c(F)c1 [14-18]	147 nM
CC(C)(C)c1ccc(CCN2CCc3cc(S(=O)(=O)Nc4ccc(CCCC5CCCC5)cc4F)ccc3C2)cn1 [Working Example 6-63]	62 nM
CC(C)(C)c1ccc(NC(=O)N2Cc3ccc(S(=O)(=O)Nc4ccc(OCCC5CCCCC5)cc4F)cc3C2)cc1 [18-11]	29 nM
CC(C)(C)c1ncc(CN2CCc3cc(S(=O)(=O)Nc4ccc(CCCC5CCCC5)cc4F)ccc3C2)cn1 [Working Example 7-56]	52 nM
CC(C)(C)c1ccc(NC(=O)N2Cc3ccc(S(=O)(=O)Nc4ccc(OCCCC(F)(F)F)cc4F)cc3C2)cc1 [18-26]	185 nM
CC(C)(C)c1ccc(NC(=O)N2Cc3ccc(S(=O)(=O)Nc4ccc(OCCCCCc5ccccc5)cc4F)cc3C2)cc1 [18-16]	10 nM
COc1ccc(NS(=O)(=O)c2ccc3c(c2)CN(C(=O)Nc2ccc(C(C)(C)C)cc2)C3)c(F)c1 [14-16]	164 nM
COc1cc(F)ccc1NS(=O)(=O)c1ccc2c(c1)CN(C(=O)Nc1ccc(C(C)(C)C)cc1)C2 [14-9]	168 nM
O=S(=O)(Nc1ccc(CCCC2CCCC2)cc1F)c1ccc2c(c1)CCN(Cc1ccc(OC(F)(F)C(F)F)cc1)C2 [Working Example 7-50]	273 nM
CC(C)(C)c1ccc(CCN2CCc3cc(S(=O)(=O)Nc4ccc(CCCC5CCCCC5)cc4F)ccc3C2)cc1 [Working Example 6-19]	62 nM
CC(C)(C)c1ccc(NC(=O)N2Cc3ccc(S(=O)(=O)Nc4ccc(OCCCOc5ccccc5)cc4F)cc3C2)cc1 [18-23]	92 nM
COc1ccc(OCCOc2ccc(NS(=O)(=O)c3ccc4c(c3)CN(C(=O)Nc3ccc(C(C)(C)C)cc3)C4)c(F)c2)cc1 [18-22]	120 nM
CCCCCCCCN1CCc2cc(S(=O)(=O)Nc3ccc(OCCCCCC)cc3F)ccc2C1 [Working Example 6-36]	253 nM
CC(C)(C)c1ccc(CN2CCc3cc(S(=O)(=O)Nc4ccc(OCCCCCc5ccccc5)cc4F)ccc3C2)cn1 [Working Example 6-34]	36 nM
CC(C)(C)c1ccc(CCN2CCc3cc(S(=O)(=O)Nc4ccc(OCCCCc5ccccc5)cc4F)ccc3C2)cc1 [Working Example 8-1, 2-[2-(4-tert-Butylphenyl)ethyl]-N-[2-fluoro-4-(4-phenylbutoxy)phenyl]-1,2,3,4-tetrahydroisoquinoline-6-sulfonamide]	70 nM
CCCCCCOc1ccc(NS(=O)(=O)c2ccc3c(c2)CCN(Cc2cnc(C(C)(C)C)s2)C3)c(F)c1 [Working Example 7-19]	195 nM
CC(C)(C)c1ccc(CCN2CCc3cc(S(=O)(=O)Nc4ccc(CCCC5CCCC5)cc4F)ccc3C2)cc1 [Working Example 6-17]	28 nM
CCCCCCCc1ccc(NS(=O)(=O)c2ccc3c(c2)CCN(CCCCCC)C3)c(F)c1 [Working Example 7-35]	220 nM
CC(C)(C)c1ccc(CCN2CCc3cc(S(=O)(=O)Nc4ccc(CCCC5CCOCC5)cc4F)ccc3C2)cc1 [Working Example 6-75]	24 nM

Compound	IC50
CC(C)(C)c1ccc(NC(=O)N2Cc3ccc(S(=O)(=O)Nc4ccc(OCCCC5CCCCC5)cc4F)cc3C2)cc1 [18-12]	26 nM
CC(C)(C)c1ccc(CCN2CCc3cc(S(=O)(=O)Nc4ccc(OCCCC5CCCCC5)cc4F)ccc3C2)cc1 [17-6]	39 nM
CC(C)(C)c1ccc(NC(=O)N2Cc3ccc(S(=O)(=O)Nc4ccc(OCCc5ccccn5)cc4F)cc3C2)cc1 [19-12]	23 nM
CC(C)(C)c1ccc(NC(=O)N2Cc3ccc(S(=O)(=O)Nc4ccc(OCCc5ccccc5)cc4F)cc3C2)cc1 [18-14]	127 nM
CC(c1ccc(C(C)(C)C)nc1)N1CCc2cc(S(=O)(=O)Nc3ccc(CCCC4CCCC4)cc3F)ccc2C1 (stereo not drawn) [23-1, 2-[1-(6-tert-Butylpyridin-3-yl)ethyl]-N-[4-(3-cyclopentylpropyl)-2-fluorophenyl]-1,2,3,4-tetrahydroisoquinoline-6-sulfonamide]	13 nM
CC(C)(C)c1ccc(CCN2CCc3cc(S(=O)(=O)Nc4ccc(OCCCc5ccccc5)cc4F)ccc3C2)cn1 [Working Example 6-45]	286 nM
CC(C)(C)c1ccc(C(=O)N2CCc3cc(S(=O)(=O)Nc4ccc(CCCC5CCCC5)cc4F)ccc3C2)cc1 [Working Example 1-4]	211 nM
CCCCCCOc1ccc(NS(=O)(=O)c2ccc3c(c2)CCN(CCc2ccc(C(C)(C)CO)cc2)C3)c(F)c1 [Working Example 6-30]	214 nM
CC(C)(C)c1ccc(CN2CCc3cc(S(=O)(=O)Nc4ccc(OCCCC5CCCCC5)cc4F)ccc3C2)cn1 [Working Example 6-35]	65 nM
CC(C)(C)[C@H]1CC[C@@H](C(=O)N2CCc3cc(S(=O)(=O)Nc4ccc(CCCC5CCCC5)cc4F)ccc3C2)CC1 [Working Example 1-7]	292 nM
CCCCCCCc1ccc(NS(=O)(=O)c2ccc3c(c2)CCN(Cc2cnc(C(C)(C)C)s2)C3)c(F)c1 [Working Example 7-32]	42 nM
CCCCCCOc1ccc(NS(=O)(=O)c2ccc3c(c2)CCN(C(=O)Nc2ccc(C(C)(C)C)cc2)C3)c(F)c1 [14-4]	98 nM
CC(C)(C)c1ccc(CCN2CCc3cc(S(=O)(=O)Nc4ccc(OCCCCCc5ccccc5)cc4F)ccc3C2)cc1 [17-5]	24 nM
C/C=C\CCCCCOc1ccc(NS(=O)(=O)c2ccc3c(c2)CN(C(=O)Nc2ccc(C(C)(C)C)cc2)C3)c(F)c1 [19-4]	2 nM
CCCCCCOc1ccc(NS(=O)(=O)c2ccc3c(c2)CCN(CCc2ccc(C(C)(C)C)cc2)C3)c(F)c1 [Working Example 8-3]	133 nM
CCC(c1ccc(C(C)(C)C)cc1)N1CCc2cc(S(=O)(=O)Nc3ccc(OCCCc4ccccc4)cc3F)ccc2C1 (stereo not drawn) [Working Example 11-4]	235 nM
CC(C)(C)c1ccc(NC(=O)N2Cc3ccc(S(=O)(=O)Nc4ccc(OCCCc5ccccc5)cc4F)cc3C2)cc1 [18-15]	56 nM
CC(c1ccc(C(C)(C)C)nc1)N1CCc2cc(S(=O)(=O)Nc3ccc(OCCCCCc4ccccc4)cc3F)ccc2C1 (stereo not drawn) [23-2]	14 nM
CC(C)(C)c1ncc(CN2CCc3cc(S(=O)(=O)Nc4ccc(CCCC5CCCC5)cc4F)ccc3C2)s1 [Working Example 6-48]	49 nM
